Here are results for three molecules from patent EP2140864A2 (H. Lundbeck A/S, priority 2001, dated 2002).

Marks after values point to notes of the source that are not given here.

The target in test [1] is T1, human histamine H1 receptor (Homo sapiens, UniProt P35367).
T1 construct: expressed in transfected cells
As to the kind of experiment: Radioligand binding, histamine H1 receptor. Conditions: for selectivity ratio hH1: Table 10, Ki hH1 divided by Ki hGAL3. The text has this:
Other receptors: Cell membranes expressing human dopamine D1, D2, D4 and rat D3 receptors were purchased through BioSignal, Inc. (Montreal, Canada). Binding assays using the histamine H1 receptor; dopamine receptors; and α1A, α1E, and α2 adrenergic receptors may be carried out according to the procedures described in U.S. Patent No. 5,780,485, the disclosure of which is hereby incorporated by reference in its entirety into this application. Binding assays using the dopamine D5 receptor may be carried out according to the procedures described in U.S. Patent No. 5,882,855, the disclosure of which is hereby incorporated by reference in its entirety into this application. Binding assays for the human α1D adrenergic receptor may be carried out according to the procedures described in U.S. Patent No. 6,156,518, the disclosure of which is hereby incorporated by reference in its entirety into this application.
Binding data were analyzed using nonlinear regression and statistical techniques available in the GraphPAD Prism package (San Diego, CA). Enzymatic assay data were derived from a standard curve of reference compound data.

In test [2] the test system is Male albino Sprague-Dawley rats. As to the kind of experiment: Rat Social Interaction Test (SIT). In kind it is in vivo. The following applies: for Social Interaction: unfamiliar cage mates in a familiar arena.
The test system is the same in test [3]. Description: Rat Social Interaction Test (SIT). It is filed as in vivo. As to the method: Rats were allowed to acclimate to the animal care facility for 5 days and were housed singly for 5 days prior to testing. Animals were handled for 5 minutes per day. The design and procedure for the Social Interaction Test was carried out as previously described by Kennett, et al. (1997). On the test day, weight matched pairs of rats (± 5%), unfamiliar to each other, were given identical treatments and returned to their home cages. Animals were randomly divided into 5 treatment groups, with 5 pairs per group, and were given one of the following i.p. treatments: Example 92 (10, 30 or 100 mg/kg), vehicle (1 ml/kg) or chlordiazepoxide (5 mg/kg). Dosing was 1 hour prior to testing. Rats were subsequently placed in a white perspex test box or arena (54 x 37 x 26 cm), whose floor was divided up into 24 equal squares, for 15 minutes. An air conditioner was used to generate background noise and to keep the room at approximately 74°F. All sessions were videotaped using a JVC camcorder (model GR-SZ1, Elmwood Park, NJ) with either TDK (HG ultimate brand) or Sony 30 minute videocassettes. All sessions were conducted between 1:00 - 4:30 P.M. Active social interaction, defined as grooming, sniffing, biting, boxing, wrestling, following and crawling over or under, was scored using a stopwatch (Sportsline model no. 226, 1/100 sec. discriminability). The number of episodes of rearing (animal completely raises up its body on its hind limbs), grooming (licking, biting, scratching of body), and face washing (i.e. hands are moved repeatedly over face), and number of squares crossed were scored. Passive social interaction (animals are lying beside or on top of each other) was not scored. All behaviors were assessed later by an observer who was blind as to the treatment of each pair. At the end of each test, the box was thoroughly wiped with moistened paper towels.
Male albino Sprague-Dawley rats (Taconic Farms, NY) were housed in pairs under a 12 hr light dark cycle (lights on at 0700 hrs.) with free access to food and water.
Example 92 was dissolved in 100% DMSO (Sigma Chemical Co., St. Louis, MO). Chlordiazepoxide (purchased from Sigma Chemical Co., St. Louis, MO) was dissolved in double distilled water. The vehicle consisted of 50% DMSO (v/v). All drug solutions were made up 10 minutes prior to injection and the solutions were discarded.
Example 34 was dissolved in 5% lactic acid, v/v. The vehicle consisted of 100% dimethylacetamide (DMA) and this was used to make up all drug solutions. All drug solutions were made up fresh each day and any unused solutions were discarded at the end of the test day. The volume of drug solution administered was 1 ml/kg.
The social interaction data (time interacting, rearing and squares crossed) were subjected to a randomized, one-way ANOVA and post hoc tests conducted using the Student-Newman-Keuls test. The data were subjected to a test of normality (Shapiro-Wilk test). The data were analyzed using the GBSTAT program, version 6.5 (Dynamics Microsystems, Inc., Silver Spring, MD, 1997). All data are presented as means ± S.E.M.

The mark [4] stands for this setting: 0.03 mg/kg p.o., one hour before test.
Setting [5] is: 0.1 mg/kg p.o., one hour before test.
Where [6] appears, read: 0.3 mg/kg p.o., one hour before test.
Setting [7] is: 1 mg/kg p.o., one hour before test.
The mark [8] stands for this setting: 10 mg/kg i.p., 1 hour prior to testing.
[9] abbreviates: 30 mg/kg i.p., 1 hour prior to testing.
[10] abbreviates: 100 mg/kg i.p., 1 hour prior to testing.

T1 sequence (P35367 whole entry): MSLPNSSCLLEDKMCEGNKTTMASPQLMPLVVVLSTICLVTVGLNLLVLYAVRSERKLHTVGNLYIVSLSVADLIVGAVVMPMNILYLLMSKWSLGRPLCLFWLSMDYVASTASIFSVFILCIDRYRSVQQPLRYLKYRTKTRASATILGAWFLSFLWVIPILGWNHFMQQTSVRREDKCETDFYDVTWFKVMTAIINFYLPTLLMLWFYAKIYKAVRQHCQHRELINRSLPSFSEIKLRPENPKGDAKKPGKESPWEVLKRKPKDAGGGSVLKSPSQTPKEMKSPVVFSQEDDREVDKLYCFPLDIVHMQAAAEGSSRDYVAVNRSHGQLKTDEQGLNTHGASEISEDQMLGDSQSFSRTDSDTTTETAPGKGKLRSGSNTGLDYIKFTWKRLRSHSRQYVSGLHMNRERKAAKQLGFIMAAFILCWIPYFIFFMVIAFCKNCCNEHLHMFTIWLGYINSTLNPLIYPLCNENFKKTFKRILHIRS

As a reminder, the Ki is the equilibrium dissociation constant of an inhibitor or competing ligand from its target. For `CN(C)c1cc(Nc2ccc(Cl)c(Cl)c2)nc(Nc2ccccc2)n1` [Example 60], the inhibition constant (Ki) in test [1] (Table 9, read-out: hH1 Ki) turned out to be 39.9 µM. Further, in test [1], the “selectivity ratio hH1” value is on record as over 100.
`Cc1ccc(Nc2cc(N3CCCCC3)nc(N3CCN(c4ncccc4C(F)(F)F)CC3)n2)cc1` [Example 34]: the Grooming bouts is reported as 4.0 ± 0.4^& in test [2] (setting [4]), 7.6 ± 0.5^+ in test [2] (setting [5]), 7.2 ± 1.1 in test [2] (setting [6]) and 7.3 ± 0.8 in test [2] (setting [7]). Further, the Rearing was 27 ± 3 in test [2] (setting [4]), 40 ± 5 in test [2] (setting [5]), 27 ± 2^S in test [2] (setting [6]) and 40 ± 1 in test [2] (setting [7]). Besides, the “Squares Crossed” value was 312 ± 23 in test [2] (setting [4]), 295 ± 40 in test [2] (setting [5]), 363 ± 17 in test [2] (setting [6]) and 343 ± 15^@ in test [2] (setting [7]). The “Social Interaction” value in test [2] (setting [4]) came out at 62 ± 11 s; in test [2] (setting [5]), 66 ± 7 s; in test [2] (setting [6]), 53 ± 6 s; in test [2] (setting [7]) it was 69 ± 6 s. Besides, in test [2] (0.03, 0.1, 0.3 or 1 mg/kg p.o., single administration), the “increase in the duration of social interaction compared to vehicle” value is recorded as 2-2.6 fold. In addition, in test [3] (overall conclusion of the study), the “anxiolytic profile in the Social Interaction Test (conclusion)” value was “produces an anxioltyic action”.
For the molecule `O=C1C(=Nc2cccc(C(F)(F)F)c2)c2ccccc2N1c1ccccc1` [Example 92, 1-PHENYL-3- [[3-(TRIFLUOROMETHYL)PHENYL]IMINO]-1,3-DIHYDRO-2H-INDOL-2-ONE], the “Grooming bouts” value in test [2] (setting [8]) stood at 6.1 ± 0.5; in test [2] (setting [9]), 6.2 ± 0.7; in test [3] (setting [10]), 6.8 ± 1.3. The Rearings in test [2] (setting [8]) was 47 ± 8^a; in test [2] (setting [9]), 45 ± 5^b; in test [3] (setting [10]), 31 ± 4. In addition, the “Squares Crossed” value is on record as 368 ± 36 in test [2] (setting [9]), 195 ± 19^c in test [2] (setting [10]) and 298 ± 40 in test [3] (setting [8]). The “selectivity ratio hH1” value in test [1] is listed as over 100.
